Data reported in US20240376099A1, “COMPOUNDS AND COMPOSITIONS AS INHIBITORS OF ENDOSOMAL TOLL-LIKE RECEPTORS” (Novartis AG, priority 2016, published 2024).

Target: T1, TLR7 (Homo sapiens, UniProt Q9NYK1)
T1 construct: Fresh blood was collected from normal human donors; endogenous in cells; host or cells: human PBMCs from fresh donor blood
T1 sequence (Q9NYK1 27-1049): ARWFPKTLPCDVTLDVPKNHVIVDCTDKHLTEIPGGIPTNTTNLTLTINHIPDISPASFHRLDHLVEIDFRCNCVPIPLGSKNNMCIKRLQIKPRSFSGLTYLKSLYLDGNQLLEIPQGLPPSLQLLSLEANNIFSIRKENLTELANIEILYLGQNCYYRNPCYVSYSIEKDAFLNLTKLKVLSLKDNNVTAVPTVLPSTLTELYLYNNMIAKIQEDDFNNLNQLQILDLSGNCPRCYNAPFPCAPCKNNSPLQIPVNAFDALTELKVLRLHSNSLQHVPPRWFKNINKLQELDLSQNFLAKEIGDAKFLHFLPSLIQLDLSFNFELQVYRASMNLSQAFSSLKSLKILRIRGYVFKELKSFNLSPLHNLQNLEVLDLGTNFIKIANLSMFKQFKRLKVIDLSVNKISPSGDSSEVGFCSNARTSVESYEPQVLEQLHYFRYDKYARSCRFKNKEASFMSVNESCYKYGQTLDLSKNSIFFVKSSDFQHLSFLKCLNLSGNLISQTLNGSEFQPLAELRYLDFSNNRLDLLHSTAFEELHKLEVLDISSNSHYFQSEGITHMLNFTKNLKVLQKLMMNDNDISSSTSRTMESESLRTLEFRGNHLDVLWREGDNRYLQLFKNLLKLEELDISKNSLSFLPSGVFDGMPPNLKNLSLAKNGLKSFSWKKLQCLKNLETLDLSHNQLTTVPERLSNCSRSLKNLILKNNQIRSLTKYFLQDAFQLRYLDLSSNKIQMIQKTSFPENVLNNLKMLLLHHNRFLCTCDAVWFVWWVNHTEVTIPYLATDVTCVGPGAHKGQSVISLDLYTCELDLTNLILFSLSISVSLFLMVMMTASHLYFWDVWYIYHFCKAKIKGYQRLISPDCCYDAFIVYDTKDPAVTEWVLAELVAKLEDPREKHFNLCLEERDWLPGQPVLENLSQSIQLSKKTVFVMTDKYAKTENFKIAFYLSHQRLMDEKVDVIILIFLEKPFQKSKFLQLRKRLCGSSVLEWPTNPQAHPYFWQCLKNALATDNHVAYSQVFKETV
Experiment: huPBMC TLR7 Antagonist IFNα Assay
Assay type: cell-based
Conditions: human PBMCs stimulated with ssRNA40 10 μg/mL (DOTAP), 14-16 hrs; IFNα2b AlphaLISA read-out
How it was run: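 Human PBMCs from fresh donor blood (150,000 cells/well) stimulated 14–16 h at 37 °C with DOTAP-complexed ssRNA40 (final 1 μg/ml for TLR8, 10 μg/mL for TLR7) or ODN2216 (final 0.3 μM, TLR9), 0.25% DMSO, ten-point 1/3 compound dilutions. Supernatant IL-6 read by HTRF (TLR8); IFNα by IFNα2b AlphaLISA (TLR7/TLR9).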

| IC50 [nM] | SMILES |
| --- | --- |
| 22 | COCCNC12CCC(Cn3nc(C)c4c3CCN(c3cc(C)nc5c3cnn5C)C4)(CC1)OC2 [compound 102, 1-((5-(1,6-dimethyl-1H-pyrazolo[3,4-b]pyridin-4-yl)-3-methyl-4,5,6,7-tetrahydro-1H-pyrazolo[4,3-c]pyridin-1-yl)methyl)-N-(2-methoxyethyl)-2-oxabicyclo[2.2.2]octan-4-amine] |
| 14 | Cc1cc(N2CCc3c(c(C)nn3CC34CCC(NC(=O)CCN(C)C)(CC3)CC4)C2)c2cnn(C)c2n1 [compound 105, N-(4-((5-(1,6-dimethyl-1H-pyrazolo[3,4-b]pyridin-4-yl)-3-methyl-4,5,6,7-tetrahydro-1H-pyrazolo[4,3-c]pyridin-1-yl)methyl)bicyclo[2.2.2]octan-1-yl)-3-(dimethylamino)propanamide] |
| 63 | Cc1cc(N2CCc3c(c(C)nn3CC34CCC(NCC(=O)N5CCCC5)(CC3)CC4)C2)c2cnn(C)c2n1 [compound 106, 2-((4-((5-(1,6-dimethyl-1H-pyrazolo[3,4-b]pyridin-4-yl)-3-methyl-4,5,6,7-tetrahydro-1H-pyrazolo[4,3-c]pyridin-1-yl)methyl)bicyclo[2.2.2]octan-1-yl)amino)-1-(pyrrolidin-1-yl)ethanone] |
| 11 | Cc1cc(N2CCc3c(c(C)nn3CC34CCC(N5CCO[C@H](C)C5)(CC3)CC4)C2)c2cnn(C)c2n1 [compound 107, (R)-4-(4-((5-(1,6-dimethyl-1H-pyrazolo[3,4-b]pyridin-4-yl)-3-methyl-4,5,6,7-tetrahydro-1H-pyrazolo[4,3-c]pyridin-1-yl)methyl)bicyclo[2.2.2]octan-1-yl)-2-methylmorpholine] |
| 12 | Cc1cc(N2CCc3c(c(C)nn3CC34CCC(N5CCO[C@@H](C)C5)(CC3)CC4)C2)c2cnn(C)c2n1 [compound 109, (S)-4-(4-((5-(1,6-dimethyl-1H-pyrazolo[3,4-b]pyridin-4-yl)-3-methyl-4,5,6,7-tetrahydro-1H-pyrazolo[4,3-c]pyridin-1-yl)methyl)bicyclo[2.2.2]octan-1-yl)-2-methylmorpholine] |
| 7 | Cc1cc(N2CCc3c(c(C)nn3CC34CCC(N5C[C@@H](C)O[C@@H](C)C5)(CC3)CC4)C2)c2cnn(C)c2n1 [compound 110, (2S,6R)-4-(4-((5-(1,6-dimethyl-1H-pyrazolo[3,4-b]pyridin-4-yl)-3-methyl-4,5,6,7-tetrahydro-1H-pyrazolo[4,3-c]pyridin-1-yl)methyl)bicyclo[2.2.2]octan-1-yl)-2,6-dimethylmorpholine] |

The next lines start with the molecule.

| SMILES | IC50 [nM] |
| --- | --- |
| Cc1nc(N2CCc3c(c(C)nn3CC34CCC(NC(=O)[C@@H]5CNCCO5)(CC3)CC4)C2)c2c(n1)c(C)nn2C [compound 34, (S)-N-(4-((3-methyl-5-(1,3,5-trimethyl-1H-pyrazolo[4,3-d]pyrimidin-7-yl)-4,5,6,7-tetrahydro-1H-pyrazolo[4,3-c]pyridin-1-yl)methyl)bicyclo[2.2.2]octan-1-yl)morpholine-2-carboxamide] | 13 |
| Cc1nc(N2CCc3c(c(C)nn3CC34CCC(NC(=O)[C@H]5CNCCO5)(CC3)CC4)C2)c2c(n1)c(C)nn2C [compound 36, (R)-N-(4-((3-methyl-5-(1,3,5-trimethyl-1H-pyrazolo[4,3-d]pyrimidin-7-yl)-4,5,6,7-tetrahydro-1H-pyrazolo[4,3-c]pyridin-1-yl)methyl)bicyclo[2.2.2]octan-1-yl)morpholine-2-carboxamide] | 7 |
| Cc1nc(N2CCc3c(c(C)nn3CC34CCC(N5CCOCC5)(CC3)CC4)C2)c2c(C)noc2n1 [compound 37, 3,6-dimethyl-4-(3-methyl-1-((4-morpholinobicyclo[2.2.2]octan-1-yl)methyl)-6,7-dihydro-1H-pyrazolo[4,3-c]pyridin-5(4H)-yl)isoxazolo[5,4-d]pyrimidine] | 159 |
| Cc1nc(N2CCc3c(c(C)nn3CC34CCC(N5CCCCC5)(CC3)CC4)C2)c2c(n1)c(C)nn2C [compound 38, 1,3,5-trimethyl-7-(3-methyl-1-((4-(piperidin-1-yl)bicyclo[2.2.2]octan-1-yl)methyl)-6,7-dihydro-1H-pyrazolo[4,3-c]pyridin-5(4H)-yl)-1H-pyrazolo[4,3-d]pyrimidine] | 42 |
| Cc1nc(N2CCc3c(c(C)nn3CC34CCC(N5CCCCC5)(CC3)CC4)C2)c2cnn(C)c2n1 [compound 39, 1,6-dimethyl-4-(3-methyl-1-((4-(piperidin-1-yl)bicyclo[2.2.2]octan-1-yl)methyl)-6,7-dihydro-1H-pyrazolo[4,3-c]pyridin-5(4H)-yl)-1H-pyrazolo[3,4-c]pyrimidine] | 60 |
| [2H]C([2H])([2H])N(C([2H])([2H])[2H])C12CCC(Cn3nc(C)c4c3CCN(c3nc(C)nc5c(C)nn(C)c35)C4)(CC1)CC2 [compound 40, 4-((3-methyl-5-(1,3,5-trimethyl-1H-pyrazolo[4,3-d]pyrimidin-7-yl)-4,5,6,7-tetrahydro-1H-pyrazolo[4,3-c]pyridin-1-yl)methyl)-N,N-bis(trideuteromethyl)bicyclo[2.2.2]octan-1-amine] | 70 |
| Cc1nn(CC23CCC(N)(CC2)CC3)c2c1CN(c1ccnc3[nH]ncc13)CC2 [compound 41, 4-((3-methyl-5-(1H-pyrazolo[3,4-b]pyridin-4-yl)-4,5,6,7-tetrahydro-1H-pyrazolo[4,3-c]pyridin-1-yl)methyl)bicyclo[2.2.2]octan-1-amine] | 6 |
| Cc1c2c(nn1CC13CCC(N)(CC1)CC3)CCN(c1ccnc3[nH]ncc13)C2 [compound 42, 4-((3-methyl-5-(1H-pyrazolo[3,4-b]pyridin-4-yl)-4,5,6,7-tetrahydro-2H-pyrazolo[4,3-c]pyridin-2-yl)methyl)bicyclo[2.2.2]octan-1-amine] | 17 |
| Cc1cc(N2CCc3c(c(C)nn3CC34CCC(N)(CC3)C4)C2)c2cnn(C)c2n1 [compound 44, 4-((5-(1,6-dimethyl-1H-pyrazolo[3,4-b]pyridin-4-yl)-3-methyl-4,5,6,7-tetrahydro-1H-pyrazolo[4,3-c]pyridin-1-yl)methyl)bicyclo[2.2.1]heptan-1-amine] | 38 |
| Cc1cc(N2CCc3c(c(C(F)(F)F)nn3CC34CCC(N)(CC3)CC4)C2)c2cnn(C)c2n1 [compound 45, 4-((5-(1,6-dimethyl-1H-pyrazolo[3,4-b]pyridin-4-yl)-3-(trifluoromethyl)-4,5,6,7-tetrahydro-1H-pyrazolo[4,3-c]pyridin-1-yl)methyl)bicyclo[2.2.2]octan-1-amine] | 38 |
| Cc1cc(N2CCc3c(c(C)nn3CC34CCC(NCC(=O)N5CCCCC5)(CC3)CC4)C2)c2cnn(C)c2n1 [compound 99, 2-((4-((5-(1,6-dimethyl-1H-pyrazolo[3,4-b]pyridin-4-yl)-3-methyl-4,5,6,7-tetrahydro-1H-pyrazolo[4,3-c]pyridin-1-yl)methyl)bicyclo[2.2.2]octan-1-yl)amino)-1-(piperidin-1-yl)ethanone] | 40 |
| Cc1cc(N2CCc3c(c(C)nn3CC34CCC(NC(=O)CN5CCCC5)(CC3)CC4)C2)c2cnn(C)c2n1 [compound 100, N-(4-((5-(1,6-dimethyl-1H-pyrazolo[3,4-b]pyridin-4-yl)-3-methyl-4,5,6,7-tetrahydro-1H-pyrazolo[4,3-c]pyridin-1-yl)methyl)bicyclo[2.2.2]octan-1-yl)-2-(pyrrolidin-1-yl)acetamide] | 5 |
